From patent US20170340636A1, “COMPOSITIONS AND METHODS FOR INHIBITION OF AUTOPHAGY” (Board of Regents, The University of Texas System, priority 2016, published 2017)

What was measured:
[1] = tested on: 45 off-target kinases; test: Specificity screen against 45 kinases (Eurofins Cerep); type: biochemical; conditions: inhibition higher than 50% considered significant
Experimental: Of the 13 inhibitors, 3 were tested for cross-reactivity against 45 off-target kinases.
(§1) The difference between the TAOK2 ΔTm and that of p38 and ASK1 was determined. […] The majority of the other compounds were also preferentially inhibitory toward TAOK2. Of the 13 compounds, SW034538, SW172006 and SW083688 were cross-verified for selectivity by performing a specificity screen against 45 kinases commercially at Eurofins Cerep, Inc. (FIG. 3).

[2] = biological target: T1, ASK1 (Homo sapiens, UniProt Q99683); test: DSF against ASK1 (selectivity panel of MAPK cascade members); type: binding; conditions: difference between the TAOK2 ΔTm and that of ASK1, DSF
T1 sequence (Q99683 1-1374): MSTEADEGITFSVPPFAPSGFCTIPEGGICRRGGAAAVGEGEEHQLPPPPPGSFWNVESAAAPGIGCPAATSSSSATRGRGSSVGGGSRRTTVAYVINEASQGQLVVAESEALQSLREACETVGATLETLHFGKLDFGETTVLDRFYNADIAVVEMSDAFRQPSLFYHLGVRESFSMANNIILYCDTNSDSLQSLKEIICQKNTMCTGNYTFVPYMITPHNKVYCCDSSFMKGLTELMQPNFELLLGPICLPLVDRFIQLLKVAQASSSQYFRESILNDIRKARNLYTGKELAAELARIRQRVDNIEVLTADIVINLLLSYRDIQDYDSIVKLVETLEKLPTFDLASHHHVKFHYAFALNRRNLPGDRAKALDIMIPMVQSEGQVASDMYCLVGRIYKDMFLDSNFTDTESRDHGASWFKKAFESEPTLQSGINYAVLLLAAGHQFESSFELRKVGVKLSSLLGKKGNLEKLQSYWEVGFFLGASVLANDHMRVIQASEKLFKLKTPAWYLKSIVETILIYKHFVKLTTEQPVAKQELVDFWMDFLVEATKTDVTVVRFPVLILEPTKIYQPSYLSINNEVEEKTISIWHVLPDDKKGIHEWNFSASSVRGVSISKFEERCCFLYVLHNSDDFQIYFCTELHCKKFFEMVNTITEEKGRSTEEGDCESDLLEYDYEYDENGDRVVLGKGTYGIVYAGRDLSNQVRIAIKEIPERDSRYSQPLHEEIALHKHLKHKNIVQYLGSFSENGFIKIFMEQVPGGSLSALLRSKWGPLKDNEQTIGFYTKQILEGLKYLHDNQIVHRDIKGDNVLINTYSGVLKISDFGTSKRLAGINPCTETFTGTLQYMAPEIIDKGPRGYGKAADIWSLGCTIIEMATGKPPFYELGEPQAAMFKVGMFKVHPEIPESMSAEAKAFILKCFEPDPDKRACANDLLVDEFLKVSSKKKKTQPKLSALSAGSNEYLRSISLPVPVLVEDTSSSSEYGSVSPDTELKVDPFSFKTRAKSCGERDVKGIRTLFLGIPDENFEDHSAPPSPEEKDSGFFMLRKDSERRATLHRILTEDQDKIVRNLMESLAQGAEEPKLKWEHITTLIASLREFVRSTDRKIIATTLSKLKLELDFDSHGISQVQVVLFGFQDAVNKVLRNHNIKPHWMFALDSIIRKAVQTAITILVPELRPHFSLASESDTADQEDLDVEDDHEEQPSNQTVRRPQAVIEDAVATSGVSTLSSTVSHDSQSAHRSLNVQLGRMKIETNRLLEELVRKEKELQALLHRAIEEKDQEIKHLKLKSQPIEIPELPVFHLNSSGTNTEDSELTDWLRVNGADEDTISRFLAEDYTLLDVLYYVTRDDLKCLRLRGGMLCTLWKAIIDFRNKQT
Experimental: (§2) Differential scanning fluorimetry binding assays of selected compounds against TAOK2 were conducted to measure strength of compound binding. A solution of 5 μM TAOK2, 50 mM MgCl2, 50 mM HEPES pH 7.5, and 2.5x SyproOrange(Life Technologies) was made. Compound was added to a final concentration of 1 μM. 25 μl of the reaction solution was added to the wells of a Biorad Multiplate 96 wellclear PCR plate. The plate was covered with a Biorad Microseal ‘B’ seal. Plates were read in a Biorad CFX96 Real-Time PCR system. The temperature was increased from 4° C. to 80° C., with fluorescence measurements being taken every 0.5° C. in the 6-FAM Fluorescein channel. The fluorescence response to heat curve was fit to a binding isotherm in order to determine the inflection point, which was taken as the melt temperature (Tm).
as §1

[3] = biological target: p38 (Homo sapiens, UniProt Q16539); test: DSF against p38 (selectivity panel of MAPK cascade members); type: binding; conditions: difference between the TAOK2 ΔTm and that of p38, DSF
Chain of p38 (Q16539 whole entry): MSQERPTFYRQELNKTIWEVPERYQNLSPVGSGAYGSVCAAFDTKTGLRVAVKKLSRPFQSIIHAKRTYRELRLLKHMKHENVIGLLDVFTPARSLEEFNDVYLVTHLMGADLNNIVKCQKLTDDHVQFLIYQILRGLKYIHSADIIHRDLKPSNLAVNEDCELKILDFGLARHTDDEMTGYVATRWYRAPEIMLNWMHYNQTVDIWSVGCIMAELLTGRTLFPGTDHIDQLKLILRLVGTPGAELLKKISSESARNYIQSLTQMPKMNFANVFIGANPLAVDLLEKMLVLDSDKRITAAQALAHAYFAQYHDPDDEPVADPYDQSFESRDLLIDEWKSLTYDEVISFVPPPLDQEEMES
Experimental: as §2, §1

[4] = tested on: U2OS GFP-LC3 cells; test: p62 accumulation by western blot (autophagic flux); type: cell-based, human; conditions: 50 μM, 24 hours
Experimental: FIG. 4A) U2OS cells stably expressing the GFP-LC3 fusion transgene were treated with the indicated compound at 50 μM concentration for 24 hours before GFP fluorescence was measured by flow cytometry. The median fluorescent value from 20,000 cells per condition was normalized to that of vehicle alone (DMSO) within a given experiment. The mean+SD of >2 independent experiments is shown. ****, p<0.0001; ***, p<0.001; **, p<0.01; ns, p>0.05 versus vehicle alone (DMSO) by unpaired t test. FIG. 4B) TAOK2 inhibitors induce accumulation of p62. U2OS GFP-LC3 cells were treated with the indicated compounds at 50 μM concentration, or DMSO alone, for 24 hours. Lysates were collected and analyzed by western blot using the indicated antibodies. XPB was used as a loading control.
U2OS GFP-LC3 cells were seeded in 6-well plates at 150,000 cells per well in Dulbecco's Modified Eagle Medium supplemented with 10% fetal bovine serum. Twenty-four hours after seeding, the indicated compounds were added to a final concentration of 50 µM, or an equivalent volume of vehicle alone (DMSO) was added. Twenty-four hours after compound addition, cells were rinsed twice with PBS and then lysed in 2× sample buffer. Lysates were boiled for 5 minutes, sonicated to shear DNA, separated by SDS-PAGE, and transferred to PVDF membranes (Biorad). The membranes were blocked in 5% milk in TBS-T (Tris-Buffered-Saline, Tween 20) for one hour at room temperature and then incubated with primary antibody in blocking solution overnight at 4° C. Membranes were then washed, incubated with secondary antibody in blocking solution, washed again, and analyzed by enhanced chemiluminescence followed by exposure to film.
Degradation of the autophagy scaffold and LC3 binding protein p62 is a second marker of autophagic flux. p62 degradation was assayed by Western blotting (FIG. 4B).

CCOCCCn1c(=S)[nH]c2cc(C(=O)NCC3COc4ccccc4O3)ccc2c1=O (stereo not drawn) [SW083688]
specificity toward TAOK2 in screen against 45 kinases [1]: highly specific toward TAOK2 | ΔΔTm (ASK1) [2]: 2.1 °C | ΔΔTm (p38) [3]: 2.0 °C | abundance of p62 [4]: increased the abundance of p62

CS(=O)(=O)c1ccc2nc(NC(=O)CCCOc3ccc(Cl)cc3)sc2c1 [SW172006]
specificity toward TAOK2 in screen against 45 kinases [1]: highly specific toward TAOK2 | ΔΔTm (ASK1) [2]: 1.2 °C | ΔΔTm (p38) [3]: 2.0 °C | abundance of p62 [4]: increased the abundance of p62

CCC(=O)Nc1nc(C)c(-c2csc(Nc3cc(OC)ccc3OC)n2)s1 [SW034538]
specificity toward TAOK2 in screen against 45 kinases [1]: cross-reactivity with respect to six of the 45 kinases | ΔΔTm (ASK1) [2]: 2.7 °C | ΔΔTm (p38) [3]: 2.8 °C | abundance of p62 [4]: did not appear to increase the appearance of p62
